Laboratory results from patent publication US20180147196A1, “PYRIDIN-3-YL ACETIC ACID DERIVATIVES AS INHIBITORS OF HUMAN IMMUNODEFICIENCY VIRUS REPLICATION” (priority 2015, published 2018).
Where two headings read alike, the source gives them in different places.

System: NL-RLuc virus
Assay: Inhibition of HIV replication (NL-RLuc virus in MT-2 cells, luciferase readout)
Type: cell-based
Settings: Human immunodeficiency virus 1, MT2, 120 h
Text: Inhibition of HIV replication: A recombinant NL-RLuc proviral clone was constructed in which a section of the nef gene from NL4-3 was replaced with the Renilla Luciferase gene. This virus is fully infectious and can undergo multiple cycles of replication in cell culture. In addition, the luciferous reporter provides a simple and easy method for quantitating the extent of virus growth and consequently, the antiviral activity of test compounds. The plasmid pNLRLuc contains the proviral NL-Rluc DNA cloned into pUC18 at the Pvull site. The NL-RLuc virus was prepared by transfection of 293T cells with the plasmid pNLRLuc. Transfections were performed using the LipofectAMINE PLUS kit from Invitrogen (Carlsbad, Calif.) according to the manufacturer and the virus generated was titered in MT-2 cells. For susceptibility analyses, the titrated virus was used to infect MT-2 cells in the presence of compound, and after 5 days of incubation, cells were processed and quantitated for virus growth by the amount of expressed luciferase. Assay media was RPMI 1640 supplemented with 10% heat inactivated fetal bovine serum (FBS), 100 units/ml penicillin G/100 units/ml streptomycin, 10 mM HEPES buffer pH 7.55 and 2 mM L-glutamine. The results from at least 2 experiments were used to calculate the EC50 values. Luciferase was quantitated using the Dual Luciferase kit from Promega (Madison, Wis.). Susceptibility of viruses to compounds was determined by incubation in the presence of serial dilutions of the compound. The 50% effective concentration (EC50) was calculated by using the exponential form of the median effect equation where (Fa)=1/[1+(ED50/drug conc.)^m] (Johnson V A, Byington R T. Infectivity Assay. In Techniques in HIV Research. ed. Aldovini A, Walker BD. 71-76. New York: Stockton Press.1990). Activity equal to A refers to a compound having an EC50<100 nM, while B and C denote compounds having an EC50 between 100 nM and 1 uM (B) or >1 uM (C).

Row | SMILES | EC50 (read-out: Activity) [µM] | EC50 (read-out: EC50 μM) [µM]
1 | Cc1nc(C)c([C@H](OC(C)(C)C)C(=O)O)c(N2CCC(C)(C)CC2)c1C#CCOCc1ccccc1 [Example 1, (S)-2-(5-(3-(Benzyloxy)prop-1-yn-1-yl)-4-(4,4-dimethylpiperidin-1-yl)-2,6-dimethylpyridin-3-yl)-2-(tert-butoxy)acetic acid] | 0.1 to 1 | 0.282
2 | Cc1nc(C)c([C@H](OC(C)(C)C)C(=O)O)c(N2CCC(C)(C)CC2)c1C#CC1(O)CCN(Cc2ccccc2)CC1 [Example 2, (S)-2-(5-((1-Benzyl-4-hydroxypiperidin-4-yl)ethynyl)-4-(4,4-dimethylpiperidin-1-yl)-2,6-dimethylpyridin-3-yl)-2-(tert-butoxy)acetic acid] | < 0.1 | 0.064
3 | Cc1nc(C)c([C@H](OC(C)(C)C)C(=O)O)c(N2CCC(C)(C)CC2)c1/C=C/c1ccc(F)cc1 [Example 3, (S,E)-2-(tert-Butoxy)-2-(4-(4,4-dimethylpiperidin-1-yl)-5-(4-fluorostyryl)-2,6-dimethylpyridin-3-yl)acetic acid] | < 0.1 | –
4 | Cc1nc(C)c([C@H](OC(C)(C)C)C(=O)O)c(N2CCC(C)(C)CC2)c1CCc1ccc(F)cc1 [Example 4, (S)-2-(tert-Butoxy)-2-(4-(4,4-dimethylpiperidin-1-yl)-5-(4-fluorophenethyl)-2,6-dimethylpyridin-3-yl)acetic acid] | < 0.1 | –
5 | Cc1nc(C)c([C@H](OC(C)(C)C)C(=O)O)c(N2CCC(C)(C)CC2)c1/C=C/c1ccc(-c2ccccc2)cc1 [Example 5, (S,E)-2-(5-(2-([1,1′-Biphenyl]-4-yl)vinyl)-4-(4,4-dimethylpiperidin-1-yl)-2,6-dimethylpyridin-3-yl)-2-(tert-butoxy)acetic acid] | < 0.1 | 0.035
6 | Cc1nc(C)c([C@H](OC(C)(C)C)C(=O)O)c(N2CCC(C)(C)CC2)c1CCc1ccc(-c2ccccc2)cc1 [Example 6, (S)-2-(5-(2-([1,1′-Biphenyl]-4-yl)ethyl)-4-(4,4-dimethylpiperidin-1-yl)-2,6-dimethylpyridin-3-yl)-2-(tert-butoxy)acetic acid] | < 0.1 | –
7 | Cc1nc(C)c([C@H](OC(C)(C)C)C(=O)O)c(N2CCC(C)(C)CC2)c1/C=C/c1ccc(C(F)(F)F)cc1 [Example 7, (S,E)-2-(tert-Butoxy)-2-(4-(4,4-dimethylpiperidin-1-yl)-2,6-dimethyl-5-(4-(trifluoromethyl)styryl)pyridin-3-yl)acetic acid] | < 0.1 | –
8 | Cc1nc(C)c([C@H](OC(C)(C)C)C(=O)O)c(N2CCC(C)(C)CC2)c1CCc1ccc(C(F)(F)F)cc1 [Example 8, (S)-2-(tert-Butoxy)-2-(4-(4,4-dimethylpiperidin-1-yl)-2,6-dimethyl-5-(4-(trifluoromethyl)phenethyl)pyridin-3-yl)acetic acid] | 0.1 to 1 | –
9 | Cc1nc(C)c([C@H](OC(C)(C)C)C(=O)O)c(N2CCC(C)(C)CC2)c1/C=C/Cc1ccccc1 [Example 9, (S,E)-2-(tert-Butoxy)-2-(4-(4,4-dimethylpiperidin-1-yl)-2,6-dimethyl-5-(3-phenylprop-1-en-1-yl)pyridin-3-yl)acetic acid] | 0.1 to 1 | 0.281
10 | Cc1nc(C)c([C@H](OC(C)(C)C)C(=O)O)c(N2CCC(C)(C)CC2)c1CCCc1ccccc1 [Example 10, (S)-2-(tert-Butoxy)-2-(4-(4,4-dimethylpiperidin-1-yl)-2,6-dimethyl-5-(3-phenylpropyl)pyridin-3-yl)acetic acid] | 0.1 to 1 | –
11 | Cc1nc(C)c([C@H](OC(C)(C)C)C(=O)O)c(N2CCC(C)(C)CC2)c1/C=C/c1ccccc1 [Example 11, (S,E)-2-(tert-Butoxy)-2-(4-(4,4-dimethylpiperidin-1-yl)-2,6-dimethyl-5-styrylpyridin-3-yl)acetic acid] | < 0.1 | 0.027
12 | Cc1nc(C)c([C@H](OC(C)(C)C)C(=O)O)c(N2CCC(C)(C)CC2)c1CCc1ccccc1 [Example 12, (S)-2-(tert-Butoxy)-2-(4-(4,4-dimethylpiperidin-1-yl)-2,6-dimethyl-5-phenethylpyridin-3-yl)acetic acid] | 0.1 to 1 | –
13 | Cc1nc(C)c([C@H](OC(C)(C)C)C(=O)O)c(N2CCC(C)(C)CC2)c1Br [Example 13, (S)-2-(5-Bromo-4-(4,4-dimethylpiperidin-1-yl)-2,6-dimethylpyridin-3-yl)-2-(tert-butoxy)acetic acid] | 0.1 to 1 | –
14 | Cc1nc(C)c([C@H](OC(C)(C)C)C(=O)O)c(N2CCC(C)(C)CC2)c1C1=CCCCC1 [Example 14, (S)-2-(tert-Butoxy)-2-(5-(cyclohex-1-en-1-yl)-4-(4,4-dimethylpiperidin-1-yl)-2,6-dimethylpyridin-3-yl)acetic acid] | 0.1 to 1 | 0.136
15 | Cc1nc(C)c([C@H](OC(C)(C)C)C(=O)O)c(N2CCC(C)(C)CC2)c1C1=CCC(C(C)(C)C)CC1 (stereo partly drawn) [Example 15, (2S)-2-(tert-Butoxy)-2-(5-(4-(tert-butyl)cyclohex-1-en-1-yl)-4-(4,4-dimethylpiperidin-1-yl)-2,6-dimethylpyridin-3-yl)acetic acid] | 0.1 to 1 | –
16 | Cc1nc(C)c([C@H](OC(C)(C)C)C(=O)O)c(N2CCC(C)(C)CC2)c1C1=CCN(C(=O)OC(C)(C)C)CC1 [Example 16, (S)-2-(tert-Butoxy)-2-(1′-(tert-butoxycarbonyl)-4-(4,4-dimethylpiperidin-1-yl)-2,6-dimethyl-1′,2′,3′,6′-tetrahydro-[3,4′-bipyridin]-5-yl)acetic acid] | < 0.1 | –
17 | Cc1nc(C)c([C@H](OC(C)(C)C)C(=O)O)c(N2CCC(C)(C)CC2)c1/C=C/CNC(=O)OCc1ccccc1 [Example 17, (S,E)-2-(5-(3-(((Benzyloxy)carbonyl)amino)prop-1-en-1-yl)-4-(4,4-dimethylpiperidin-1-yl)-2,6-dimethylpyridin-3-yl)-2-(tert-butoxy)acetic acid] | < 0.1 | –
18 | COC(=O)NC/C=C/c1c(C)nc(C)c([C@H](OC(C)(C)C)C(=O)O)c1N1CCC(C)(C)CC1 [Example 18, (S,E)-2-(tert-Butoxy)-2-(4-(4,4-dimethylpiperidin-1-yl)-5-(3-((methoxycarbonyl)amino)prop-1-en-1-yl)-2,6-dimethylpyridin-3-yl)acetic acid] | 0.1 to 1 | –
19 | Cc1nc(C)c([C@H](OC(C)(C)C)C(=O)O)c(N2CCC(C)(C)CC2)c1C1=CCN(C(=O)OCc2ccccc2)CC1 [Example 19, (S)-2-(1′-((Benzyloxy)carbonyl)-4-(4,4-dimethylpiperidin-1-yl)-2,6-dimethyl-1′,2′,3′,6′-tetrahydro-[3,4′-bipyridin]-5-yl)-2-(tert-butoxy)acetic acid] | < 0.1 | –
20 | COC(=O)N1CC=C(c2c(C)nc(C)c([C@H](OC(C)(C)C)C(=O)O)c2N2CCC(C)(C)CC2)CC1 [Example 20, (S)-2-(tert-Butoxy)-2-(4-(4,4-dimethylpiperidin-1-yl)-1′-(methoxycarbonyl)-2,6-dimethyl-1′,2′,3′,6′-tetrahydro-[3,4′-bipyridin]-5-yl)acetic acid] | 0.1 to 1 | –
21 | Cc1nc(C)c([C@H](OC(C)(C)C)C(=O)O)c(N2CCC(C)(C)CC2)c1C1=CCNCC1 [Example 21, (S)-2-(tert-Butoxy)-2-(4-(4,4-dimethylpiperidin-1-yl)-2,6-dimethyl-1′,2′,3′,6′-tetrahydro-[3,4′-bipyridin]-5-yl)acetic acid] | > 1 | 2.21
22 | Cc1nc(C)c([C@H](OC(C)(C)C)C(=O)O)c(N2CCC(C)(C)CC2)c1C1=CCN(CCc2ccc(F)cc2)CC1 [Example 22, (S)-2-(tert-Butoxy)-2-(4-(4,4-dimethylpiperidin-1-yl)-1′-(4-fluorophenethyl)-2,6-dimethyl-1′,2′,3′,6′-tetrahydro-[3,4′-bipyridin]-5-yl)acetic acid] | 0.1 to 1 | –
23 | Cc1nc(C)c([C@H](OC(C)(C)C)C(=O)O)c(N2CCC(C)(C)CC2)c1C1=CCN(CCCc2ccc(F)cc2)CC1 [Example 23, (S)-2-(tert-Butoxy)-2-(4-(4,4-dimethylpiperidin-1-yl)-1′-(3-(4-fluorophenyl)propyl)-2,6-dimethyl-1′,2′,3′,6′-tetrahydro-[3,4′-bipyridin]-5-yl)acetic acid] | < 0.1 | –
24 | Cc1nc(C)c([C@H](OC(C)(C)C)C(=O)O)c(N2CCC(C)(C)CC2)c1C#N [Example 24, (S)-2-(tert-Butoxy)-2-(5-cyano-4-(4,4-dimethylpiperidin-1-yl)-2,6-dimethylpyridin-3-yl)acetic acid] | 0.1 to 1 | –
25 | Cc1nc(C)c([C@H](OC(C)(C)C)C(=O)O)c(N2CCC(C)(C)CC2)c1C1=CC(CCOc2ccc(F)cc2)C1 (stereo partly drawn) [Example 25, (2S)-2-(tert-Butoxy)-2-(4-(4,4-dimethylpiperidin-1-yl)-5-(3-(2-(4-fluorophenoxy)ethyl)cyclobut-1-en-1-yl)-2,6-dimethylpyridin-3-yl)acetic acid] | < 0.1 | –
26 | Cc1nc(C)c([C@H](OC(C)(C)C)C(=O)O)c(N2CCC(C)(C)CC2)c1C [Example 26, (S)-2-(tert-Butoxy)-2-(4-(4,4-dimethylpiperidin-1-yl)-2,5,6-trimethylpyridin-3-yl)acetic acid] | < 0.1 | 0.097
